OC(Cn1cncn1)(Cn1cncn1)c1ccc(F)cc1F
solubility (mole fraction)
Settings | in 1,4-dioxane | in THF | in chloroform | in ethanol | in methanol | in n-butanol | in n-propanol
298.15 K | 0.0124 | 0.0121 | 0.0135 | 0.011 | 0.0141 | 0.0058 | 0.0115
303.15 K | 0.0165 | 0.0155 | 0.0136 | 0.0147 | 0.0193 | 0.0066 | 0.0127
308.15 K | 0.0194 | 0.0197 | 0.0139 | 0.017 | 0.0286 | 0.008 | 0.0148
313.15 K | 0.0219 | 0.0225 | 0.0148 | 0.0231 | 0.0422 | 0.0102 | 0.0175
318.15 K | 0.0257 | 0.0273 | 0.016 | 0.0284 | 0.06 | 0.0132 | 0.021
323.15 K | 0.0304 | 0.0331 | 0.0181 | 0.0354 | 0.088 | 0.016 | 0.0278
